Measurements published in paper PMC6874057, “Synthesis of Chalcone Derivatives: Inducing Apoptosis of HepG2 Cells via Regulating Reactive Oxygen Species and Mitochondrial Pathway” (Frontiers in Pharmacology, 2019).

Assays:
HepG2 = test: MTT cell viability assay, HepG2; type: cell-based, human; settings: mean ± SE
Protocol: (§1) HeLa, A549, HepG2, HL-60, and WI-38 cell lines were incubated in DMEM solution containing 10% FBS for 48 h. The incubated tumor cells were seeded into 96-well plates (5 × 10^3 cells/well) to make them attach for 12 h. Afterwards, the cells were processed with the various concentrations of the synthetic compounds and 5-FU for 48 h. After removing the cell culture supernatant, 10 µl MTT (5 mg/ml) solution was dripped into the cells to generate a formazan product, which were dissolved by dimethyl sulfoxide (DMSO) 4 h later. Multifunction microplate reader (Bio-Rad Laboratories, Shanghai, China) was adopted to measure the absorbance at the wave length of 490 nm. The IC50 (the lowest drug concentration causing 50% of the tumor cells inhibition) was then calculated using GraphPad Prism Software (version 5.02) and used to indicate the cytotoxic effect of the target compounds on the selected tumor cells.

HL-60 = test: MTT cell viability assay, HL-60; type: cell-based, human; settings: mean ± SE
Protocol: as §1

WI-38 = test: MTT cell viability assay, normal cell line WI-38; type: cell-based, human; settings: normal cells, mean ± SE
Protocol: as §1

A549 = test: MTT cell viability assay, A549; type: cell-based, human; settings: mean ± SE
Protocol: as §1

Hela = test: MTT cell viability assay, Hela; type: cell-based, human; settings: 48 h, mean ± SE
Protocol: as §1

[1] = system: adherent tumor cell lines (HepG2, A549 and Hela); test: MTT assay, summary over adherent tumor cell lines; type: cell-based; settings: Homo sapiens; span of IC50 over compounds a11-a14 and adherent tumor cell lines; read-out: IC50 range over cell lines
Protocol: as §1

[2] = system: mitochondrial membrane potential in HepG2 cells; test: Mitochondrial membrane potential by JC-1 probe; type: cell-based, human; settings: CCCP for 20 min, without a14, positive control
Protocol: JC-1 probe was used to detect changes in MMP. Firstly, HepG2 cells (3 × 10^5 cells/well) were seeded into a six-well plate overnight for adherence, and then treated with various concentrations of a14 for 48 h. Next, the cells were treated with JC-1 (2.5 µg/ml) at 37°C for 10 min in the dark and rinsed three times with PBS. Then, the six-well plate was placed under the fluorescence microscope (excitation 480/30× nm, emission 515 nm) to observe the fluorescence color and intensity of JC-1 in the cells. In addition, HepG2 cells (3 × 10^5 cells/well) were inoculated on another six-well plate overnight to allow adherence, and then treated with a14 (50 µM) for 0, 12, 24, 36, and 48 h, adding CCCP (without a14) for 20 min to completely lose the mitochondrial membrane potential. Cells were then incubated with JC-1 (2.5 µg/ml) at 37°C in the dark for 10 min and rinsed with PBS for three times. Fluorescence intensity of residual JC-1 in cells was measured by Beckman Coulter flow cytometer (FITC, 525/40BP). The data obtained was analyzed by CytExpert 2.0 software imbedded in the flow cytometry.

| Compound | IC50 (HepG2; 48 h) | IC50 (HL-60; 48 h) | IC50 (A549; 48 h) | IC50 (Hela) | IC50 (HepG2; Homo sapiens, HepG2, 48 h) | IC50 (HL-60; Homo sapiens, HL-60, 48 h) | IC50 (A549; Homo sapiens, A549, 48 h) | IC50 (Hela; Homo sapiens, HeLa) | IC50 [1] | IC50 (WI-38; 48 h) | IC50 (WI-38; Homo sapiens, WI-38, 48 h) | JC-1 (FITC), right of the gate line (green fluorescence) [2] |
| --- | --- | --- | --- | --- | --- | --- | --- | --- | --- | --- | --- | --- |
| O=c1[nH]cc(F)c(=O)[nH]1 [5-FU, reference compound] | 42.9 ± 2.88 µM | 165 ± 4.74 µM | 53.7 ± 1.16 µM | 35.2 ± 1.39 µM | – | – | – | – | – | 62.8 ± 2.03 µM | – | – |
| NC(=O)c1cc(C(=O)/C=C/c2ccc(F)cc2)ccc1O [a1] | – | – | – | – | 135 ± 9.79 µM | 131 ± 5.38 µM | 107 ± 2.14 µM | 125 ± 6.92 µM | – | – | 229 ± 7.38 µM | – |
| NC(=O)c1cc(C(=O)/C=C/c2cccc(Cl)c2)ccc1O [a2] | – | – | – | – | 77 ± 1.34 µM | 135 ± 2.45 µM | 82.5 ± 3.61 µM | 98.9 ± 2.9 µM | – | – | 122 ± 2.33 µM | – |
| NC(=O)c1cc(C(=O)/C=C/c2cccc(Br)c2)ccc1O [a3] | – | – | – | – | 71.2 ± 4.63 µM | 141 ± 5.19 µM | 59.6 ± 5.23 µM | 77.6 ± 4.74 µM | – | – | 126.2 ± 0.46 µM | – |
| NC(=O)c1cc(C(=O)/C=C/c2ccc(Br)cc2)ccc1O [a4] | – | – | – | – | 46.41 ± 0.05 µM | 110 ± 2.04 µM | 48.2 ± 2.25 µM | 65.9 ± 7.8 µM | – | – | 100 ± 11.5 µM | – |
| NC(=O)c1cc(C(=O)/C=C/c2ccccc2)ccc1O [a5] | – | – | – | – | 68.1 ± 5.51 µM | 108 ± 3.5 µM | 57.2 ± 1.53 µM | 82.2 ± 4.8 µM | – | – | 127 ± 6.6 µM | – |
| Cc1ccccc1/C=C/C(=O)c1ccc(O)c(C(N)=O)c1 [a6] | – | – | – | – | 75.4 ± 3.27 µM | 213 ± 2.98 µM | 51.3 ± 2.11 µM | 74.8 ± 2.33 µM | – | – | 109 ± 1.49 µM | – |
| Cc1cccc(/C=C/C(=O)c2ccc(O)c(C(N)=O)c2)c1 [a7] | – | – | – | – | 55.6 ± 3.23 µM | 111 ± 1.57 µM | 40.7 ± 3.68 µM | 40.7 ± 1.33 µM | – | – | 81.7 ± 1.13 µM | – |
| Cc1ccc(/C=C/C(=O)c2ccc(O)c(C(N)=O)c2)cc1 [a8] | – | – | – | – | 57.4 ± 3.07 µM | 301 ± 3.53 µM | 65 ± 2.35 µM | 53.6 ± 0.67 µM | – | – | 147 ± 13.2 µM | – |
| carbonyl cyanide m-chlorophenyl hydrazine [CCCP, reference compound] | – | – | – | – | – | – | – | – | – | – | – | 99.98% |

Continued, in another order:

| IC50 (HepG2; 48 h) | IC50 (HL-60; 48 h) | IC50 (A549; 48 h) | IC50 (Hela) | IC50 (HepG2; Homo sapiens, HepG2, 48 h) | IC50 (HL-60; Homo sapiens, HL-60, 48 h) | IC50 (A549; Homo sapiens, A549, 48 h) | IC50 (Hela; Homo sapiens, HeLa) | IC50 [1] | Compound | IC50 (WI-38; 48 h) | IC50 (WI-38; Homo sapiens, WI-38, 48 h) | JC-1 (FITC), right of the gate line (green fluorescence) [2] |
| --- | --- | --- | --- | --- | --- | --- | --- | --- | --- | --- | --- | --- |
| – | – | – | – | 80.3 ± 1.87 µM | 210 ± 3.03 µM | 57.6 ± 1.42 µM | 65.1 ± 1.34 µM | – | COc1ccccc1/C=C/C(=O)c1ccc(O)c(C(N)=O)c1 [a9] | – | 98.5 ± 4.91 µM | – |
| – | – | – | – | 70.8 ± 4.03 µM | 131 ± 4.64 µM | 45.6 ± 1.05 µM | 54.4 ± 1.11 µM | – | COc1cccc(/C=C/C(=O)c2ccc(O)c(C(N)=O)c2)c1 [a10] | – | 93.3 ± 3.13 µM | – |
| – | – | – | – | 44.7 ± 1.56 µM | 245 ± 5.54 µM | 35.8 ± 1.02 µM | 48.2 ± 0.56 µM | 23.3 to 54.4 µM | COc1ccc(/C=C/C(=O)c2ccc(O)c(C(N)=O)c2)cc1 [a11] | – | 89.5 ± 6.61 µM | – |
| – | – | – | – | 54.37 ± 0.52 µM | 160 ± 3.59 µM | 41.2 ± 2.15 µM | 35.3 ± 2.13 µM | 23.3 to 54.4 µM | COc1ccc(/C=C/C(=O)c2ccc(O)c(C(N)=O)c2)c(OC)c1 [a12] | – | 123 ± 2.45 µM | – |
| – | – | – | – | 50.3 ± 4.03 µM | 134 ± 4.44 µM | 37.6 ± 1.11 µM | 31.8 ± 1.62 µM | 23.3 to 54.4 µM | COc1ccc(/C=C/C(=O)c2ccc(O)c(C(N)=O)c2)cc1OC [a13] | – | 118 ± 3.53 µM | – |
